Assay results as given in patent US5674875A, “Method of blocking human 5-hydroxytryptamine-2 receptors” (priority 1995, dated 1997).

How the values were obtained:
rat 5-HT2 receptor = target: T1, rat 5-HT2 receptor (Rattus norvegicus, UniProt P14842); format: binding; conditions: brain tissue of male Sprague-Dawley rats; performed in triplicate
T1 construct: from tissue; host or cells: brain tissue of male Sprague-Dawley rats
Source text: This is quite surprising in light of the N-substituted ergolines having a much greater affinity for the 5-HT2 receptors in rats compared to the corresponding N-unsubstituted ergolines.

[1] = target: T2, cloned human 5-HT2 receptor (Homo sapiens, UniProt P28223); format: binding; conditions: cells containing cloned human 5-HT2 receptor; performed in triplicate
T2 construct: expressed in transfected cells
T2 sequence (P28223 whole entry): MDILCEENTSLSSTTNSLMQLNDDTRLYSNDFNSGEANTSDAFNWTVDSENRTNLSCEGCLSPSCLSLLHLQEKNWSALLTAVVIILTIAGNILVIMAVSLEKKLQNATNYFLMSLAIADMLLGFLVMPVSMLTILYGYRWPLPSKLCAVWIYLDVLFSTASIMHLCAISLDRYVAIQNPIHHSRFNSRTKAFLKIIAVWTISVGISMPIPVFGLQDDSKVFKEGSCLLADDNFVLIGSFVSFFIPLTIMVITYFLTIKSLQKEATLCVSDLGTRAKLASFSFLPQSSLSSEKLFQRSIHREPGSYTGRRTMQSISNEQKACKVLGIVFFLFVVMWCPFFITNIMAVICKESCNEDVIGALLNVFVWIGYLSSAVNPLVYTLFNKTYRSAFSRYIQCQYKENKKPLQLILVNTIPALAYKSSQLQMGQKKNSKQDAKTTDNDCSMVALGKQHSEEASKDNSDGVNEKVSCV

T1 sequence (P14842 whole entry): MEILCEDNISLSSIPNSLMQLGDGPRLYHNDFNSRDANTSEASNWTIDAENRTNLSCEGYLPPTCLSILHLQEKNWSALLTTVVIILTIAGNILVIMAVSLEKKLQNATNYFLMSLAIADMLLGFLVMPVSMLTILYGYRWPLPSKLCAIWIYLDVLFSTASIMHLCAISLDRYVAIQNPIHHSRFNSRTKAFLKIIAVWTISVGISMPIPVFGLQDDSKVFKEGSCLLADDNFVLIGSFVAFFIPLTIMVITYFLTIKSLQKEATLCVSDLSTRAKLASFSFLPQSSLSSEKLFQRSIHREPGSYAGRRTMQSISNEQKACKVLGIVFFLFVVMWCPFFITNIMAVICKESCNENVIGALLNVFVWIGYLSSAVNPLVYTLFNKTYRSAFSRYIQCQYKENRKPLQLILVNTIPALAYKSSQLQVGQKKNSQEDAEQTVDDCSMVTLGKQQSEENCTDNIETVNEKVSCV

Work on `CC(C)n1cc2c3c(cccc31)C1CC(C(=O)NC3CC3O)CN(C)C1C2` (centres unmarked) [drawing 3 NH 2-hydroxycyclopropyl] yielded an IC50 (rat 5-HT2 receptor) of 5.8 nM and an IC50 [1] of 27.7 nM.
